Test systems include KM12 colon; SF-539 CNS; NCI-H226 lung; CAKI-1 renal; UACC-257 melanoma; A498 renal; SK-MEL-2 melanoma; EKVX NSCLC; DU-145 prostate; HS 578T breast.
What all share (assay): inhibition of tumour cell growth, NCI panel, 48 h

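These data come from cells grown in 96-well plates and exposed to compound for 48 hours at five concentrations. GI50 = concentration required for 50% inhibition of growth. TGI denotes the concentration required for complete inhibition of growth.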 Bounds are passed on as bounds.

For `N#Cc1cccnc1Cl`, the TGI in the assay on KM12 colon, with SF-539 CNS, in the assay with NCI-H226 lung, with CAKI-1 renal, in the assay with UACC-257 melanoma and in the assay with A498 renal was above 100 µM in each case. Also, the TGI in the assay on SK-MEL-2 melanoma and with EKVX NSCLC was above 100 µM each time.

For the compound `O=C(NCO)NCOCn1c(=O)n(CO)c(=O)n(CO)c1=O`, the TGI is above 62.8 µM in the assay on KM12 colon; above 100 µM in the assay with SF-539 CNS; above 100 µM in the assay with NCI-H226 lung; above 100 µM in the assay on CAKI-1 renal; 99.4 µM with UACC-257 melanoma; above 100 µM with A498 renal. The TGI is 33.8 µM in the assay on SK-MEL-2 melanoma and above 100 µM in the assay with EKVX NSCLC.

Regarding `Clc1ccc2c(c1)-c1c3c(nn1-c1ccccc1)-c1ccccc1SC3O2` (centres undefined), the TGI with KM12 colon, in the assay with SF-539 CNS, with UACC-257 melanoma, with A498 renal, in the assay on SK-MEL-2 melanoma and with EKVX NSCLC was above 100 µM each time.

Take `CN(C)c1cc[c]([Sn]([c]2ccc(N(C)C)cc2)([c]2ccc(N(C)C)cc2)[c]2ccc(N(C)C)cc2)cc1`: the GI50 with KM12 colon was 5.88 µM; in the assay on SF-539 CNS, 15.8 µM; with CAKI-1 renal, 5.13 µM; in the assay with A498 renal, 7.47 µM; with SK-MEL-2 melanoma it was 6.83 µM; in the assay with EKVX NSCLC, 6.74 µM. The TGI with KM12 colon stood at 22.7 µM; with SF-539 CNS it was 33.4 µM; in the assay with CAKI-1 renal it was 19.4 µM; with A498 renal it was 20.3 µM; in the assay with SK-MEL-2 melanoma it was 29.3 µM; in the assay with EKVX NSCLC, 28 µM.

`COc1cc(NC(C)CCCN)c2nccc(C)c2c1` (centres undefined): the TGI in the assay with DU-145 prostate was above 100 µM; in the assay with HS 578T breast, 64.3 µM; with KM12 colon, 32.5 µM; in the assay with SF-539 CNS, 35.3 µM; in the assay with CAKI-1 renal, 56 µM; with SK-MEL-2 melanoma, 37.9 µM. In the assay with EKVX NSCLC, this compound showed a TGI above 100 µM.

Take `CCCSc1nc(COC(=O)NC)c(COC(=O)NC)n1C`: the TGI in the assay with KM12 colon, in the assay with SF-539 CNS, with NCI-H226 lung, in the assay with CAKI-1 renal, in the assay with UACC-257 melanoma and in the assay with A498 renal was above 100 µM in each case. Besides, the TGI with SK-MEL-2 melanoma and with EKVX NSCLC was above 100 µM in each case.

As for `Cc1c(C(=O)/C=C/c2ccccc2)[n+](=O)c2ccccc2n1[O-]`, the TGI with KM12 colon came out at 29.9 µM; with SF-539 CNS, 29.7 µM; with NCI-H226 lung it was 39.2 µM; in the assay on CAKI-1 renal, 45.7 µM; with UACC-257 melanoma it was 31.3 µM; in the assay on A498 renal it was 31.3 µM. Further, the TGI with EKVX NSCLC came to 29.5 µM.

With `C=CC/C=C/C/C=C/CCCCCCCc1cccc(O)c1C(=O)O`, the TGI in the assay on KM12 colon, with SF-539 CNS, in the assay on CAKI-1 renal, with UACC-257 melanoma, with SK-MEL-2 melanoma and in the assay with EKVX NSCLC was above 100 µM in each case.

Turning to `O=C1[C@@H]2C(c3ccccc3F)=NO[C@@H]2C(=O)N1c1ccc(Cc2ccc(N3C(=O)[C@H]4C(c5ccccc5F)=NO[C@H]4C3=O)cc2)cc1`, the TGI with KM12 colon, in the assay with SF-539 CNS, in the assay with NCI-H226 lung, in the assay with CAKI-1 renal, in the assay on UACC-257 melanoma and in the assay on A498 renal was above 100 µM each time. The TGI in the assay with SK-MEL-2 melanoma and in the assay on EKVX NSCLC was above 100 µM throughout.

As for `c1ccc(C2Nc3ccccc3C3OCCCC23)cc1` (centres undefined), the TGI in the assay on KM12 colon was above 100 µM; with SF-539 CNS, 31.5 µM; with NCI-H226 lung it was 68.3 µM; in the assay with CAKI-1 renal, 42.3 µM; in the assay with UACC-257 melanoma, above 100 µM; in the assay on A498 renal, 71.9 µM. Further, the TGI in the assay with SK-MEL-2 melanoma came out at 82.2 µM; in the assay with EKVX NSCLC, 68.4 µM.

Take `CSC(C1c2ccccc2N(c2ccc(C)cc2)c2[nH]c(=O)n(C)c(=O)c21)S(=O)(=O)c1ccc(C)cc1` (centres undefined): the TGI with SF-539 CNS, in the assay on NCI-H226 lung, in the assay with CAKI-1 renal, with UACC-257 melanoma, with A498 renal and in the assay on SK-MEL-2 melanoma was above 100 µM throughout. In the assay with EKVX NSCLC, this compound came in with a TGI above 100 µM.

Regarding `C1C[OH+]CC[OH+]CC[OH+]CC[OH+]CC[OH+]1.[Cl-].[V]`, the GI50 is 26.9 µM in the assay with KM12 colon; 16.5 µM in the assay on SF-539 CNS; 28.1 µM in the assay on NCI-H226 lung; 82.2 µM in the assay on CAKI-1 renal; 29.3 µM in the assay with UACC-257 melanoma; above 100 µM in the assay on A498 renal. For the same compound, the GI50 in the assay on SK-MEL-2 melanoma is 48.2 µM. Further, the TGI was above 100 µM in the assay on KM12 colon; 31.6 µM with SF-539 CNS; above 100 µM in the assay with NCI-H226 lung; above 100 µM in the assay on CAKI-1 renal; above 100 µM with UACC-257 melanoma; above 100 µM with A498 renal. In addition, the TGI in the assay with SK-MEL-2 melanoma is above 100 µM.

As to `O=C(Nc1c(Cl)cc([N+](=O)[O-])cc1Cl)C(=O)C(C1OC(=O)c2ccccc21)[N+](=O)[O-]` (centres undefined), the TGI in the assay on KM12 colon, with SF-539 CNS, in the assay with NCI-H226 lung, with CAKI-1 renal, with UACC-257 melanoma and in the assay with A498 renal was above 100 µM throughout. In addition, the TGI in the assay with SK-MEL-2 melanoma and with EKVX NSCLC was above 100 µM throughout.

For the compound `CC(=O)C(=CN1CCN(C(=O)c2ccco2)C1=S)C(C)=O`, the GI50 was 2.83 µM in the assay with KM12 colon; 5.19 µM in the assay on CAKI-1 renal; 2.51 µM with UACC-257 melanoma; 3.34 µM with SK-MEL-2 melanoma; 11.2 µM in the assay with EKVX NSCLC. The TGI in the assay with KM12 colon came out at 9.72 µM; in the assay on CAKI-1 renal, 19.1 µM; in the assay on UACC-257 melanoma, 12.1 µM; with SK-MEL-2 melanoma it was 8.52 µM; in the assay on EKVX NSCLC, 28.6 µM.

In the case of `COc1cc(/C=C(\C#N)c2ccccc2)cc(OC)c1`, the TGI in the assay on KM12 colon is above 100 µM; with SF-539 CNS, above 100 µM; in the assay with NCI-H226 lung it was above 100 µM; in the assay on CAKI-1 renal it was above 100 µM; in the assay with UACC-257 melanoma it was 51 µM; with SK-MEL-2 melanoma it was above 100 µM. This compound also yielded a TGI in the assay with EKVX NSCLC above 100 µM.
